Molecules are shown by their SMILES. In brackets after ≈: the same amount, converted by molar mass.

The nature of data set [1]: Equilibrium solubility in water. The data set is classed as physicochemical. The settings on record: after equilibrium in water at room temperature for 24 hours.
Data set [2] can be described thus: Solubility profiles in pH 6.8 phosphate buffer. The settings on record: aqueous buffer, thermodynamic from solid, 37° C., 150 rpm, n = 3. The data set is classed as physicochemical. On the procedure: Phosphate buffer (pH 6.8): 3.40 g of potassium dihydrogen phosphate and 0.45 g of sodium hydroxide were dissolved in 500 mL of water.
Type A: About 8.0 mg of Type A sample was added to 20 mL of the phosphate buffer (pH 6.8) in a 30-mL glass vial. The vial was capped, placed in a shaker, and kept shaking with 150 rpm at 37° C. At indicated time intervals (10, 30, 60, 120, 240 min), a fraction of the suspension was removed and filtered through a 0.45-μm filter by discarding the first part of the filtrate. The filtrate was diluted and then analyzed by HPLC.
ASD: An appropriate amount of ASD (about 3.0 mg of Compound I) was added to 7.5 mL of the phosphate buffer (pH 6.8) in a 30-mL glass vial. The vial was capped, placed in a shaker, and kept shaking with 150 rpm at 37° C. At indicated time intervals (10, 30, 60, 120, 240 min), a fraction of the suspension was removed and centrifuged at 12,000 rpm for 5 minutes to give a clear solution that was then analyzed by HPLC.

The nature of data set [3]: Glass transition temperature determination by DSC. The settings on record: 0 to 210° C. at 10° C./min. Format: physicochemical. Here is the method:
Type A: Accurately weighted Type A sample (2˜5 mg) was placed in a DSC pan which was then sealed and placed in TA Instruments Q2000. The pan was heated from room temperature to 230° C. at a rate of 20° C./min and after 5 min, rapidly cooled to 0° C. at a rate of 50° C./min. After another 5 min, the DSC analysis was carried out between 0 to 210° C. at a rate of 10° C./min.
ASD: Accurately weighted ASD sample (2˜5 mg) was placed in a DSC pan which was then sealed and placed in TA Instruments Q2000. The pan was heated from room temperature to 135° C. at a rate of 20° C./min and after 5 minutes, rapidly cooled to 0° C. at a rate of 50° C./min. After another 5 min, the DSC analysis was carried out between 0 to 210° C. at a rate of 10° C./min (FIG. 2 and FIG. 3).

Data set [4] can be described thus: Stability assessment of ASD (XRPD, DSC, solubility, relative substances after storage). The data set is classed as physicochemical. The settings on record: no storage (drug substance). The text has this:
Capped brown glass vials each containing an ASD sample (HPMCAS-10-SDD and PVPVA-10-HME) were placed inside stability chambers.

Data set [5] is described as follows: In vivo PK, oral administration in beagle dogs. The note with it: dog, blood, fasted beagle dogs, 3 mg/kg, Type A as 0.5% MC suspension, HPMCAS-10-SDD as tablet. On the procedure:
Type A and HPMCAS-10-SDD were formulated with excipients, respectively. The PK properties of two formulations administered orally in beagle dogs were evaluated. Each formulation was tested in three dogs, each weighed 8˜12 kg.
A formulation was prepared by wet granulation. Firstly, mannitol, pregelatinized starch, sodium carboxymethyl starch and sodium dodecyl sulfate of different amounts were mixed evenly according to Table 8. Secondly, Type A and Povidone K30 were added into an appropriate amount of absolute alcohol, stirred, and mixed as adhesive. Finally, the adhesive was added to the evenly mixed excipients, followed by granulation, drying, addition of magnesium stearate, and mixing into a powder.
The above formulation was added to 0.5% methylcellulose (MC) to give a suspension containing 0.6 mg/mL of Compound I. The suspension was then orally administered to fasted beagle dogs at 5 mL/kg, which was equivalent to a dose of 3 mg/kg. Blood samples were collected at 0.25, 0.5, 1, 2, 4, 8 and 24 hours post dose. Concentrations of Compound I were quantified by LC-MS/MS analysis using an API-4500 mass spectrometer.
A formulation was prepared by dry granulation. […]
Four tablets were orally administered to fasted beagle dogs at a dose of 3 mg/kg. […] Concentrations of Compound I were quantified by LC-MS/MS analysis.

`C=CC(=O)N1CC[C@H](n2nc(C#Cc3cc(OC)cc(OC)c3)c(C(N)=O)c2NC)C1` [Type A, (S)-1-(1-acryloylpyrrolidin-3-yl)-3-((3,5-dimethoxyphenyl)ethynyl)-5-(methylamino)-1H-pyrazole-4-carboxamide] showed a solubility in data set [1] of 6.4 µg/mL (≈ 15.1 µM). The compound further had a solubility at 10 min in data set [2] (10 min) of 4.88 µg/mL (≈ 11.5 µM). The same compound gave a solubility at 30 min in data set [2] (30 min) of 7.91 µg/mL (≈ 18.7 µM). The compound further displayed a solubility at 60 min in data set [2] (60 min) of 7.81 µg/mL (≈ 18.4 µM). Moreover, in data set [2] (120 min), the solubility at 120 min is 7.62 µg/mL (≈ 18 µM). Further, the solubility at 240 min in data set [2] (240 min) was 8.47 µg/mL (≈ 20 µM). For the same compound, in data set [3], the Tg is 70.1 °C. The “Total Impurities” value in data set [4] was 0.19%. In addition, in data set [5], the AUC(0-t) is 1250 ng·h/mL and the highest level (Cmax) was 270 ng/mL.

(Values after patent US20250332105A1, “AMORPHOUS SOLID DISPERSION COMPRISING (S)-1-(1-ACRYLOYLPYRROLIDIN-3-YL)-3-((3,5-DIMETHOXYPHENYL)ETHYNYL)-5-(METHYLAMINO)-1H-PYRAZOLE-4-CARBOXAMIDE” (BEIJING INNOCARE PHARMA TECH CO., LTD., priority 2024, published 2025).)
